21 compounds from patent EP2582674B1 (Cymabay Therapeutics, Inc., priority 2010, dated 2011) can be followed below.

The test system of assay [1] is C57BL/6J mice. Kind of assay: Intra peritoneal glucose tolerance test (IPGTT). The format is in vivo. The following applies: 30 mg/kg oral gavage 30 min before 2g/kg glucose intra peritoneally, overnight fasted male C57BL/6J mice, incremental AUC of glucose excursion vs vehicle; for inhibition in vivo at 30 mg/kg: Mus musculus, 2 h, read-out: % reduction IPGTT at 30mg/kg. On the procedure:
(§1) 8-10 week old male C57BL/6J mice (Harlan) were maintained on regular chow diet from Harlan (2018 Teklad Global). On the day before the experiment mice were fasted overnight, then randomized into groups (n=10-15) to receive the tested GPR120 agonist at doses ranging from 100mg/kg or the vehicle (1% CMC, 2% TWEEN 80). Compounds were delivered orally via gavage at 10mL/kg. Blood glucose levels were measured by glucometer (Ascensia Elite XL, Bayer) at time -30 minutes before administration of compound. Blood glucose was measured again after 30 minutes (at time 0), and then the mice were dosed intra peritoneally with 2g/kg glucose at 10mL/kg. Blood glucose measurements were taken 20, 40, 60, 90 and 120 minutes after glucose administration, by glucometer (Ascensia Elite XL, Bayer).
(§2) Glucose levels were plotted against time, and the incremental area under the curve (AUC) of the glucose excursion was determined from time 0 using Graphpad Prism 5.01. Outliers were excluded using Tukey's box plot outlier test, and statistical significance of differences in AUC of compound treatment compared to vehicle was determined by non-parametric Kruskal-Wallis test with Dunn's post test.
The compounds were tested at 30 mg/kg and the levels of blood glucose were determined in the presence and absence of the tested compounds. The percentage of glucose reduction is reported. The tested compounds were selected as Examples from the exemplified compounds. […]

The subject of assay [2] is C57BL/6J mice. The experiment in a line: Oral glucose tolerance test. The following applies: 6 h fasted male C57BL/6J mice, incremental AUC vs vehicle; for % reduction AUC glucose excursion at 100mg/kg: 100 mg/kg oral gavage 30 min before 3g/kg oral glucose; for % reduction AUC glucose excursion: Sitagliptin at 1mg/kg, 3g/kg oral glucose. The format is in vivo. On the procedure: as §1, with “day of” for “day before”, “fasted for 6 hours,” for “fasted overnight,”, “dosed orally” for “dosed intra peritoneally”, “with 3g/kg” for “with 2g/kg”
as §2
Tables 2 and 3 below show the mean percentage inhibition of the glucose excursion for the fifteen animals tested in each group. The compounds were tested at 100 mg/kg and the levels of blood glucose were determined in the presence and absence of the tested compounds. The percentage of glucose reduction is reported. The tested compounds were selected as examples from the exemplified compounds. […]

The target of a further assay is T1, human GPR120 (Homo sapiens, UniProt Q5NUL3).
T1 construct: host or cells: HEK293 cells co-expressing Gqi5
T1 sequence (Q5NUL3 1-361): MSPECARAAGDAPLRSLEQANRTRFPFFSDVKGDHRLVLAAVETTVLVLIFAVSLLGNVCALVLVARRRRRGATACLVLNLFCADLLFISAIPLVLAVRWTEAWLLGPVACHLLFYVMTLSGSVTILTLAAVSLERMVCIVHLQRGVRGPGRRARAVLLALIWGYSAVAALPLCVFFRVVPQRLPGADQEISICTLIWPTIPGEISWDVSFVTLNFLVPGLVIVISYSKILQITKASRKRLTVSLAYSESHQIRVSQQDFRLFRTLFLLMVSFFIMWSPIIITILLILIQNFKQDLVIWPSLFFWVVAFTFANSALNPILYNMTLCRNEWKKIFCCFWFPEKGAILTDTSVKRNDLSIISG
Kind of assay: Intracellular Ca2+ assay in human GPR120 stable cell line (FLIPR Calcium 4 dye, Flexstation). Type of assay: cell-based. The following applies: for activity at 5 µM: HEK293, % activity at 5 µM compared to the maximal activity of GW9508 at 6.7 µM (=100%), read-out: %Activity (GW9508 Reference Compound); for activity at 2.5 µM: HEK293, % activity at 2.5 µM compared to the maximal activity of the compound of Example 25 at 2.5 µM (=100%), read-out: % Activity (Ex. 25 Reference Compound).

Where [3] appears, read: HEK293 cells co-expressing Gqi5.

As for `CCOc1cc(OCc2cc(F)cc3c2OC(C)(C)C3)ccc1CCC(=O)O` [Example 268, 3-(2-ethoxy-4-((5-fluoro-2,2-dimethyl-2,3-dihydrobenzofuran-7-yl)methoxy)phenyl)propanoic acid], in the assay with C57BL/6J mice [1], the inhibition in vivo at 30 mg/kg came out at 23%.
Still for that read-out and setting: as for `C[C@@H](Cc1ccc(OCc2cc(Cl)cc3c2OC(C)(C)C3)c(F)c1)C(=O)O` [Example 142, (S)-3-(4-((5-chloro-2,2-dimethyl-2,3-dihydrobenzofuran-7-yl)methoxy)-3-fluorophenyl)-2-methylpropanoic acid], the figure is 36.2%.
In the case of `CC1(C)Cc2cc(Cl)cc(COc3c(F)cc(C4CC4C(=O)O)cc3F)c2O1` (racemic) [Example 35, 2-(4-((5-chloro-2,2-dimethyl-2,3-dihydrobenzofuran-7-yl)methoxy)-3,5-difluorophenyl)cyclopropanecarboxylic acid], the “% reduction AUC glucose excursion at 100mg/kg” value with C57BL/6J mice [2] (Table 3) amounted to 27.7%. For the same compound, the activity at 5 µM on human GPR120 (setting [3]) was 60.1%.
In the same order, the values of `CC1(C)Cc2cc(Cl)cc(COc3ccc4c(c3)CCC4CC(=O)O)c2O1` (centres unmarked) [Example 36, 2-(5-((5-chloro-2,2-dimethyl-2,3-dihydrobenzofuran-7-yl)methoxy)-2,3-dihydro-1H-inden-1-yl)acetic acid] are 33.6% and 123%.
`CC(Cc1ccc(OCc2cc(Cl)cc3c2OC(C)(C)C3)c(C(F)(F)F)c1)C(=O)O` (centres unmarked) [Example 9, 3-(4-((5-chloro-2,2-dimethyl-2,3-dihydrobenzofuran-7-yl)methoxy)-3-(trifluoromethyl)phenyl)-2-methylpropanoic acid]: the inhibition in vivo at 30 mg/kg in the assay with C57BL/6J mice [1] was found to be 19.8%. Besides, at human GPR120 (setting [3]), the activity at 5 µM stood at 113%.
Consider `CCc1cc(OCc2cc(F)cc3c2OC(C)(C)C3)ccc1CCC(=O)O` [Example 134, 3-(2-ethyl-4-((5-fluoro-2,2-dimethyl-2,3-dihydrobenzofuran-7-yl)methoxy)phenyl)propanoic acid], for which the inhibition in vivo at 30 mg/kg with C57BL/6J mice [1] was 30.2%. In addition, the activity at 2.5 µM at human GPR120 (setting [3]) worked out at 151%.
Consider `N[C@@H](CC(=O)N1CCn2c(nnc2C(F)(F)F)C1)Cc1cc(F)c(F)cc1F` [Sitagliptin, sitagliptin, reference compound], for which the “% reduction AUC glucose excursion” value in the assay on C57BL/6J mice [2] (Table 2) stood at 58.6%; with C57BL/6J mice [2] (Table 3), 48.6%.
On to `CC1(C)Cc2cc(F)cc(COc3ccc4c(c3)CC[C@@H]4CC(=O)O)c2O1` [Example 178, (R)-2-(5-((5-fluoro-2,2-dimethyl-2,3-dihydrobenzofuran-7-yl)methoxy)-2,3-dihydro-1H-inden-1-yl)acetic acid], for which the inhibition in vivo at 30 mg/kg in the assay with C57BL/6J mice [1] amounted to 16.3%. Further, the activity at 2.5 µM at human GPR120 (setting [3]) worked out at 106%.
The matching figures for `Cc1c(CCC(=O)O)ccc(OCc2cc(Cl)cc3c2OC(C)(C)C3)c1C` [Example 209, 3-(4-((5-chloro-2,2-dimethyl-2,3-dihydrobenzofuran-7-yl)methoxy)-2,3-dimethylphenyl)propanoic acid]: 43.6% and 142%.
On to `CC1(C)Cc2cc(Cl)cc(COc3ccc(CCC(=O)O)c4c3CCC4)c2O1` [Example 64, 3-(7-((5-chloro-2,2-dimethyl-2,3-dihydrobenzofuran-7-yl)methoxy)-2,3-dihydro-1H-inden-4-yl)propanoic acid], for which the inhibition in vivo at 30 mg/kg with C57BL/6J mice [1] amounted to 24.9%.
Turning to `C[C@H](Cc1ccc(OCc2cc(Cl)cc3c2OC(C)(C)C3)c(F)c1)C(=O)O` [Example 141, (R)-3-(4-((5-chloro-2,2-dimethyl-2,3-dihydrobenzofuran-7-yl)methoxy)-3-fluorophenyl)-2-methylpropanoic acid], in the assay with C57BL/6J mice [1], the inhibition in vivo at 30 mg/kg is 30.6%. Besides, at human GPR120 (setting [3]), the activity at 2.5 µM was 143%.
Take `CC1(C)Cc2cc(F)cc(COc3ccc(CCC(=O)O)cc3)c2O1` [Example 132, 3-(4-((5-fluoro-2,2-dimethyl-2,3-dihydrobenzofuran-7-yl)methoxy)phenyl)propanoic acid]: the inhibition in vivo at 30 mg/kg in the assay on C57BL/6J mice [1] was 6.5%.
Turning to “3-(4-((5-chloro-2,2-dimethyl-2,3-dihydrobenzofuran-7-yl)methoxy)-3-fluorophenyl)-2-methylpropanoic acid [Example 10]”, in the assay with C57BL/6J mice [1], the “% reduction IPGTT at 30mg/kg” value amounted to 30.7%. Moreover, in the assay on C57BL/6J mice [2] (Table 2), the “% reduction AUC glucose excursion at 100mg/kg” value was found to be 58.1%. Besides, the “%Activity (GW9508 Reference Compound)” value at human GPR120 (% activity at 5 µM compared to the maximal activity of GW9508 at 6.7 µM (=100%), HEK293 cells co-expressing Gqi5) is 106.7955%.
Take `COc1cc(OCc2cc(F)cc3c2OC(C)(C)C3)ccc1CCC(=O)O` [Example 50, 3-(4-((5-fluoro-2,2-dimethyl-2,3-dihydrobenzofuran-7-yl)methoxy)-2-methoxyphenyl)propanoic acid]: the inhibition in vivo at 30 mg/kg in the assay with C57BL/6J mice [1] was 26.2%. Besides, the activity at 2.5 µM on human GPR120 (setting [3]) is 130%.
The matching figures for `CC(Cc1ccc(OCc2cc(Cl)cc3c2OC(C)(C)C3=O)c(F)c1)C(=O)O` (centres unmarked) [Example 77, 3-(4-((5-chloro-2,2-dimethyl-3-oxo-2,3-dihydrobenzofuran-7-yl)methoxy)-3-fluorophenyl)-2-methylpropanoic acid]: 10.4% and 110%.
The matching figures for `Cc1c(CCC(=O)O)ccc(OCc2cc(F)cc3c2OC(C)(C)C3)c1C` [Example 208, 3-(4-((5-fluoro-2,2-dimethyl-2,3-dihydrobenzofuran-7-yl)methoxy)-2,3-dimethylphenyl)propanoic acid]: 41.7% and 147%.
In the same order, the values of `C[C@H](Cc1ccc(OCc2cc(F)cc3c2OC(C)(C)C3)cc1)C(=O)O` [Example 65, (R)-3-(4-((5-fluoro-2,2-dimethyl-2,3-dihydrobenzofuran-7-yl)methoxy)phenyl)-2-methylpropanoic acid] are 22.2% and 141%.
For `CC1(C)Cc2cc(F)cc(COc3ccc(C4CC4C(=O)O)cc3)c2O1` (racemic) [Example 131 (racemic), 2-(4-((5-fluoro-2,2-dimethyl-2,3-dihydrobenzofuran-7-yl)methoxy)phenyl) cyclopropanecarboxylic acid], the inhibition in vivo at 30 mg/kg in the assay with C57BL/6J mice [1] was 23.1%.
As to `CC(Cc1ccc(OCc2cc(F)cc3c2OC(C)(C)C3)cc1)C(=O)O` (centres unmarked) [Example 16, 3-(4-((5-fluoro-2,2-dimethyl-2,3-dihydrobenzofuran-7-yl)methoxy)phenyl)-2-methylpropanoic acid], the inhibition in vivo at 30 mg/kg in the assay with C57BL/6J mice [1] was 19.4%. Besides, the “% reduction AUC glucose excursion at 100mg/kg” value in the assay with C57BL/6J mice [2] (Table 3) is given as 52.4%. Further, on human GPR120 (setting [3]), the activity at 5 µM was found to be 111%.
For the compound `CC(Cc1ccc(OCc2cc(Cl)cc3c2OC(C)(C)C3)cc1)C(=O)O` (centres unmarked) [Example 13], the “% reduction AUC glucose excursion at 100mg/kg” value with C57BL/6J mice [2] (Table 2) is on record as 61.9%.
As a reminder, the EC50 is the concentration at which the effect is half-maximal. With `CC(Cc1ccc(OCc2cc(OC(F)(F)F)cc3c2OC(C)(C)C3)cc1)C(=O)O` (centres unmarked) [Example 124, 3-(4-((2,2-dimethyl-5-(trifluoromethoxy)-2,3-dihydrobenzofuran-7-yl)methoxy)phenyl)-2-methylpropanoic acid], on human GPR120 (setting [3]), the activity at 2.5 µM is 132%. Moreover, at human GPR120 (eight concentrations from 0.00001 to 20 µM, changes (Max-Min) of fluorescence intensity), the EC50 was not above 1000 nM.
